Data taken from patent publication US20230091336A1, “CANNABINOID COMPOSITIONS” (priority 2020, published 2023).

Experiments:
[1] = test system: SOCE in Jurkat T cells; experiment: SOCE Fura-2 bioassay in Jurkat cells; format: cell-based, human; conditions: for IC50: Homo sapiens, read-out: IC50 SOCE, purified cannabinoids, Jurkat, Table 5; for combinatory effect on SOCE inhibition when paired with CBGA (isobolographic analysis): pairs expected to inhibit 50%, FIGS. 10A-10T
[2] = test system: SOCE in THP-1 human monocytes; experiment: SOCE Fura-2 bioassay in THP-1 cells; conditions: for IC50: Homo sapiens, THP-1, read-out: IC50 SOCE, purified cannabinoids; for combinatory effect when paired with 2.2 μM CBGA: 10 μM cannabinoid + 2.2 μM CBGA, FIG. 10Z
[3] = test system: SOCE in RBL-2H3 rat mast cells; experiment: SOCE Fura-2 bioassay in RBL-2H3 cells; conditions: Rattus norvegicus, RBL-2H3, read-out: IC50 SOCE, purified cannabinoids, RBL-2H3; Table 5
Procedure: (§1) Briefly, SOCE inhibition experiments were performed as described in Example 8, using each of the hemp extracts listed below and in Tables 6A and 6B at six concentrations each in each of the five cell types listed above to obtain dose response curves, as shown in FIGS. 11A-11SS. […] All data are averages of three independent runs±SEM. […] Hemp extracts used in FIGS. 11A-11SS are: Sour Space Candy (SSC), Hawaiian Haze (HH), Special Sauce (SS), Suver Haze (SH), White CBG (WCBG), Elektra (ELEK), Cherry Wine (CW), Lifter (LIF), Grape Soda (GS).

[4] = test system: SOCE in U937 human monocytes; experiment: SOCE Fura-2 bioassay in U937 cells; conditions: Homo sapiens, U-937, read-out: IC50 SOCE, purified cannabinoids, U937; Table 5
Procedure: as §1

[5] = test system: SOCE in Luva human mast cells; experiment: SOCE Fura-2 bioassay in Luva cells; conditions: Homo sapiens, Mast cell, read-out: IC50 SOCE, purified cannabinoids, Luva; Table 5
Procedure: as §1

[6] = test system: SOCE in HEK-293 human embryonic kidney cells; experiment: SOCE Fura-2 bioassay in HEK293 cells; format: cell-based; conditions: for IC50: Homo sapiens, HEK293, read-out: IC50 SOCE, purified cannabinoids, HEK-293, Table 5

CCCCCc1cc(O)c2c(c1)O[C@]1(C)CC[C@@H]3C1[C@@H]2C3(C)C (stereo partly drawn) [CBL, (1aS,1a1R,3aR,8bR)-1,1,3a-trimethyl-6-pentyl-1a,1a1,2,3,3a,8b-hexahydro-1H-4-oxabenzo[f]cyclobuta[cd]inden-8-ol]
IC50 [1]: > 50 µM
combinatory effect on SOCE inhibition when paired with CBGA (isobolographic analysis) [1]: Simple additive
IC50 [2]: > 50 µM
IC50 [3]: > 50 µM
IC50 [4]: > 50 µM
IC50 [5]: > 50 µM
IC50 [6]: > 50 µM

CCCCCc1cc(OC)c2c(c1)OC(C)(C)c1ccc(C)cc1-2 [CBNM, 1-methoxy-6,6,9-trimethyl-3-pentyl-6H-benzo[c]chromene]
IC50 [1]: > 50 µM
IC50 [2]: > 50 µM
IC50 [3]: > 50 µM
IC50 [4]: > 50 µM
IC50 [5]: > 50 µM
IC50 [6]: > 50 µM

CCCCCc1cc2c(c(O)c1C(=O)O)C=C[C@@](C)(CCC=C(C)C)O2 [CBCA, (R)-5-hydroxy-2-methyl-2-(4-methylpent-3-en-1-yl)-7-pentyl-2H-chromene-6-carboxylic acid]
IC50 [1]: 1.13 µM
combinatory effect on SOCE inhibition when paired with CBGA (isobolographic analysis) [1]: Simple additive
IC50 [2]: 29.1 µM
IC50 [3]: > 50 µM
IC50 [4]: > 50 µM
IC50 [5]: > 50 µM
IC50 [6]: > 50 µM

C=C(C)[C@@H]1CCC(C)=C[C@H]1c1c(O)cc(CCCCC)c(C(=O)O)c1O [CBDA, (1′R,2′R)-2,6-dihydroxy-5′-methyl-4-penlyl-2′-(prop-1-en-2-yl)-1′,2′,3′,4′-tetrahydro-[1,1′-biphenyl]-3-carboxylic acid]
effect on SOCE Ca^2+ signals, pure compounds ([1]; 10 μM, 1 μM thapsigargin, FIG. 7A, 7C): fully block the Ca^2+ signals
IC50 [1]: 4.07 µM
combinatory effect on SOCE inhibition when paired with CBGA (isobolographic analysis) [1]: sub-additive
IC50 [2]: 5.17 µM
combinatory effect on SOCE inhibition when paired with CBGA (isobolographic analysis) ([2]; THP-1, pairs expected to inhibit 50%, FIGS. 10U-10Y): sub-additive
IC50 [3]: 16.1 µM
IC50 [4]: 5.83 µM
IC50 [5]: 2.4 µM
inhibitory effect in immune cells compared with non-immune HEK293 cells ([6]; 10 μM, HEK293 (FIG. 8) vs immune cells): selective
IC50 [6]: 26.9 µM

C=C(C)c1ccc(C)cc1-c1c(O)cc(CCCCC)cc1O [CBND, 5′-methyl-4-pentyl-2′-(prop-1-en-2-yl)-[1,1′ biphenyl]-2,6-diol]
IC50 [1]: 6.7 µM
combinatory effect on SOCE inhibition when paired with CBGA (isobolographic analysis) [1]: Simple additive
IC50 [2]: > 50 µM
IC50 [3]: 32.8 µM
IC50 [4]: 24 µM
IC50 [5]: 19 µM
IC50 [6]: 21.4 µM

C=C(C)[C@@H]1CCC(C)=C[C@H]1c1c(O)cc(CCC)c(C(=O)O)c1O [CBDVA, (1′R,2′R)-2,6-dihydroxy-5′-methyl-2′-(prop-1-en-2-yl)-4-propyl-1′,2′,3′,4′-tetrahydro-[1,1′-biphenyl]-3-carboxylic acid]
IC50 [1]: 11.3 µM
combinatory effect on SOCE inhibition when paired with CBGA (isobolographic analysis) [1]: sub-additive
IC50 [2]: 8.45 µM
IC50 [3]: 23.5 µM
IC50 [4]: 10.6 µM
IC50 [5]: 11.3 µM
IC50 [6]: 20.7 µM

CCCCCc1cc(O)c(C/C=C(\C)CCC=C(C)C)c(O)c1 [CBG, (E)-2-(3,7-dimethylocta-2,6-dien-1-yl)-5-penlylbenzene-1,3-diol]
IC50 [1]: 2.36 µM
combinatory effect on SOCE inhibition when paired with CBGA (isobolographic analysis) [1]: supra-additive
IC50 [2]: 33.6 µM
combinatory effect when paired with 2.2 μM CBGA ([2]; THP-1): simple additive agonists
IC50 [3]: > 50 µM
IC50 [4]: 33.5 µM
IC50 [5]: 3.29 µM
IC50 [6]: > 50 µM

CCCCCc1cc2c(c(O)c1C(=O)O)[C@@H]1[C@H]3C(CC[C@@]3(C)O2)C1(C)C (stereo partly drawn) [CBLA, (1aS,1a1R,3aR,8bR)-8-hydroxy-1,1,3a-trimethyl-6-pentyl-1a, 1a1,2,3,3a, 8b-hexahydro-1H-4-oxabenzo[f]cyclobuta[cd]indene-7-carboxylic acid]
IC50 [1]: 9.29 µM
combinatory effect on SOCE inhibition when paired with CBGA (isobolographic analysis) [1]: sub-additive
IC50 [2]: 12.4 µM
IC50 [3]: > 50 µM
IC50 [4]: 28.3 µM
IC50 [5]: 20.9 µM
IC50 [6]: 31.1 µM

CCCc1cc(O)c(C/C=C(\C)CCC=C(C)C)c(O)c1 [CBGV, (E)-2-(3,7-dimethylocta-2,6-dien-1-yl)-5-propylbenzene-1,3-diol]
IC50 [1]: 5.27 µM
combinatory effect on SOCE inhibition when paired with CBGA (isobolographic analysis) [1]: supra-additive
IC50 [2]: 40.7 µM
combinatory effect when paired with 2.2 μM CBGA ([2]; THP-1): simple additive agonists
IC50 [3]: 30.9 µM
IC50 [4]: 14.5 µM
IC50 [5]: 6.46 µM
IC50 [6]: 9.16 µM
